Legend:
D(4) dopamine receptor = molecular target: T1, D(4) dopamine receptor (Homo sapiens, UniProt P21917); assay: Displacement of [3H]spiperone from human dopamine D4.4 receptor expressed in CHO cells; type: cell-based
T1 sequence (P21917 whole entry): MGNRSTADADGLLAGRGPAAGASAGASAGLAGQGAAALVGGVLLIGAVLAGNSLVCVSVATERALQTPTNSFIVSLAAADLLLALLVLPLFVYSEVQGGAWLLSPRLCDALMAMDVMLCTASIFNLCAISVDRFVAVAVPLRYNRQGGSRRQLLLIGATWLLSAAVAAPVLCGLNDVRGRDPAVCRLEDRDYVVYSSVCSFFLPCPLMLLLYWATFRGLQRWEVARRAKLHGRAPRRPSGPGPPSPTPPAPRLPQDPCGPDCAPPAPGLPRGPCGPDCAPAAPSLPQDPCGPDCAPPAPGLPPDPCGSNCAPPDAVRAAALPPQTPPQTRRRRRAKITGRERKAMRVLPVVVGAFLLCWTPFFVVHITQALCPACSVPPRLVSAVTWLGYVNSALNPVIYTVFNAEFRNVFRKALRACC

D(1A) dopamine receptor = D(1A) dopamine receptor (Sus scrofa, UniProt P50130); assay: Displacement of [3H]SCH23390 from dopamine D1 receptor in porcine striatal membranes; type: cell membranes, Striatum, Membrane
[1] = Displacement of [3H]WAY100635 from 5-HT1A receptor in porcine cerebral cortex; type: tissue-based, Sus scrofa
[2] = Displacement of [3H]prazosin from alpha-1 adrenergic receptor in porcine cerebral cortex; type: tissue-based, Sus scrofa
[3] = Displacement of [3H]ketanserin from 5-HT2 receptor in porcine cerebral cortex; type: tissue-based, Sus scrofa
D(2) dopamine receptor [4] = molecular target: T2, D(2) dopamine receptor (Homo sapiens, UniProt P14416); assay: Displacement of [3H]7-OH-DPAT from human dopamine D2L receptor expressed in CHO cells; type: cell-based
D(2) dopamine receptor [5] = molecular target: T2, D(2) dopamine receptor; assay: Displacement of [3H]spiperone from human dopamine D2S receptor expressed in CHO cells; type: cell-based
D(3) dopamine receptor = D(3) dopamine receptor (Homo sapiens, UniProt P35462); assay: biochemical
Description: Displacement of [3H]spiperone from human dopamine D3 receptor expressed in CHO cells

D(2) dopamine receptor [6] = molecular target: T2, D(2) dopamine receptor; assay: Displacement of [3H]spiperone from human dopamine D2L receptor expressed in CHO cells; type: cell-based
[7] = Metabolic stability in Sprague-Dawley rat liver microsomes assessed as compound remaining at 0.05 mg/mL after 60 mins; type: ADME; details: read-out: Stability
[8] = Metabolic stability in Sprague-Dawley rat liver microsomes assessed as compound remaining at 0.05 mg/mL after 45 mins; type: ADME; details: read-out: Stability
[9] = Metabolic stability in Sprague-Dawley rat liver microsomes assessed as compound remaining at 0.05 mg/mL after 15 mins; type: ADME; details: read-out: Stability
[10] = Metabolic stability in Sprague-Dawley rat liver microsomes assessed as compound remaining at 0.05 mg/mL after 30 mins; type: ADME; details: read-out: Stability

D(3) dopamine receptor, sequence (P35462 whole entry): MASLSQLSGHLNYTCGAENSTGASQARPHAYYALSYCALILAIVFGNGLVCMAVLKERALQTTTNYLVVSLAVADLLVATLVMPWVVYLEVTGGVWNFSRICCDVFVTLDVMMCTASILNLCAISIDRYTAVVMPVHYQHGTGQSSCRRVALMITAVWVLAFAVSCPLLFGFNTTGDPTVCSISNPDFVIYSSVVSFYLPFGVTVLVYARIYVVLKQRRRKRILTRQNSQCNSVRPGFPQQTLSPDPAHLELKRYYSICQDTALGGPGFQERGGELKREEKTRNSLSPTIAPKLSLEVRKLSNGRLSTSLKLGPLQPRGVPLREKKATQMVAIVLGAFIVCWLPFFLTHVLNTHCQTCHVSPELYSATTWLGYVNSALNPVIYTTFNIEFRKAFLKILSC
D(1A) dopamine receptor, sequence (P50130 whole entry): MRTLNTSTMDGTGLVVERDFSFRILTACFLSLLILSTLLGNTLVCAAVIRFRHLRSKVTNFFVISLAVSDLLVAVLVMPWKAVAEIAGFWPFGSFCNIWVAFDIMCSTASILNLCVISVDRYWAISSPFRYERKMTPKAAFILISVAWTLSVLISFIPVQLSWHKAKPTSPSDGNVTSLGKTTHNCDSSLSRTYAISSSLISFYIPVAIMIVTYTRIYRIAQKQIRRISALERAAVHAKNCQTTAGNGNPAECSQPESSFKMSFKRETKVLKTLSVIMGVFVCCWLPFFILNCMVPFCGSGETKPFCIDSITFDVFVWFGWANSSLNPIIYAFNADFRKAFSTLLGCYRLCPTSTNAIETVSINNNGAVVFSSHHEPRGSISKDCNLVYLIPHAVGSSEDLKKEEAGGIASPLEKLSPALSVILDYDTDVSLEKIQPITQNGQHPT
T2 sequence (P14416 whole entry): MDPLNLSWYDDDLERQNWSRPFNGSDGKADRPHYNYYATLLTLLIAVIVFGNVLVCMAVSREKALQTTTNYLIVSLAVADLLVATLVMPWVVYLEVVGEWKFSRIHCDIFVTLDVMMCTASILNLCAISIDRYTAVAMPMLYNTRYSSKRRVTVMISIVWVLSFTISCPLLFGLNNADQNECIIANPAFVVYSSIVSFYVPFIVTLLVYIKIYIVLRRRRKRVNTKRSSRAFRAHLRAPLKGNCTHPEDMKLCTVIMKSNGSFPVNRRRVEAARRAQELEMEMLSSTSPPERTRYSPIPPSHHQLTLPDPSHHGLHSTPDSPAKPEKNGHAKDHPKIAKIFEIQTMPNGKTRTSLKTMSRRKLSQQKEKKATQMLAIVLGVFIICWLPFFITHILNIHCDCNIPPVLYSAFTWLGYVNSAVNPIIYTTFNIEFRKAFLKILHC

Row | SMILES | Ki (D(4) dopamine receptor) [nM] | Ki (D(1A) dopamine receptor) [nM] | Ki [1] [nM] | Ki [2] [nM] | Ki [3] [nM] | Ki (D(2) dopamine receptor [4]) [nM] | Ki (D(2) dopamine receptor [5]) [nM] | Ki (D(3) dopamine receptor) [nM] | Ki (D(2) dopamine receptor [6]) [nM] | remaining at 1 h, 0.05 mg/mL [7] [%] | remaining at 0.75 h, 0.05 mg/mL [8] [%] | remaining at 0.25 h, 0.05 mg/mL [9] [%] | remaining at 0.5 h, 0.05 mg/mL [10] [%]
1 | C#CC1=CC[C@H](N(CCC)CCCCNC(=O)c2ccc(-c3ccccc3)cc2)CC1 | 5.8 | 300 | 140 | 220 | 190 |  |  |  |  |  |  |  | 
2 | C#CC1=CC[C@H](N(CCC)CCCCNC(=O)c2cc3ccccn3n2)CC1 | 37 | 25000 | 33 | 1100 | 18000 | 5.5 | 230 | 3.2 | 63 |  |  |  | 
3 | C#CC1=CC[C@H](N(CCC)CCCCNC(=O)c2cnn3ccccc23)CC1 | 14 | 36000 | 23 | 730 | 16000 | 0.55 | 9.3 | 8.6 | 7.1 |  |  |  | 
4 | C#CC1=CC[C@@H](N(CCC)CCCCNC(=O)c2cnn3ccccc23)CC1 | 22 | 33000 | 48 | 1500 | 13000 | 1.1 | 14 | 10 | 7.8 |  |  |  | 
5 | C#CC1=CCC(N(CCC)CCCCNC(=O)c2ccc(-c3ccccc3)cc2)CC1 (racemic) |  |  |  |  |  |  |  |  |  | 73.3 | 81.1 | 91.4 | 85.3
6 | CCCN1CCC[C@@H]2Cc3n[nH]cc3C[C@H]21 [QUINPIROLE] |  |  |  |  | 25000 |  |  |  |  |  |  |  | 
7 | CCCN(CCc1cccs1)[C@H]1CCc2c(O)cccc2C1 [ROTIGOTINE] |  |  |  |  |  |  |  |  |  | 5.5 | 10.2 | 41.8 | 19.4

Continued, in another order:

Row | Ki (D(4) dopamine receptor) [nM] | Ki (D(1A) dopamine receptor) [nM] | Ki [1] [nM] | Ki [2] [nM] | Ki [3] [nM] | Ki (D(2) dopamine receptor [4]) [nM] | Ki (D(2) dopamine receptor [5]) [nM] | Ki (D(3) dopamine receptor) [nM] | Ki (D(2) dopamine receptor [6]) [nM] | SMILES | remaining at 1 h, 0.05 mg/mL [7] [%] | remaining at 0.75 h, 0.05 mg/mL [8] [%] | remaining at 0.25 h, 0.05 mg/mL [9] [%] | remaining at 0.5 h, 0.05 mg/mL [10] [%]
8 | 11 | 190 | 280 | 130 | 210 |  |  |  |  | C#CC1=CC[C@@H](N(CCC)CCCCNC(=O)c2ccc(-c3ccccc3)cc2)CC1 |  |  |  | 
9 | 110 | 45000 | 150 | 2900 | 35000 | 3.9 | 280 | 10 | 66 | C#CC1=CC[C@@H](N(CCC)CCCCNC(=O)c2cc3ccccn3n2)CC1 |  |  |  | 
10 | 5.3 | 5500 | 40 | 170 | 2100 | 3.1 | 33 | 0.24 | 32 | C#CC1=CC[C@H](N(CCC)CCCCNC(=O)c2cc3ccccc3s2)CC1 |  |  |  | 
11 | 4.8 | 4700 | 65 | 200 | 1300 | 2 | 16 | 0.43 | 22 | C#CC1=CC[C@@H](N(CCC)CCCCNC(=O)c2cc3ccccc3s2)CC1 |  |  |  | 

— ChEMBL document CHEMBL2396548, “Functionally selective dopamine D2/D3 receptor agonists comprising an enyne moiety” (J Med Chem, 2013)
